Measured values: patent US6034134A, “1-Amino-alkylcyclohexane NMDA receptor antagonists” (Merz + Co. GmbH & Co., priority 1998, dated 2000)
Like-named read-outs stand apart in the source and are kept apart here.

Legend:
[1] = system: cortical neurones; experiment: Excitotoxicity: glutamate toxicity in cultured cortical neurones (MTT); assay type: cell-based, rat; conditions: Rattus norvegicus, Cortical neurone
Description: Cortical neurones were obtained from cerebral cortices of 17/18 day old fetal rats (Wistar), in general following the dissociation procedure described by. After short trypsinization and gentle trituration with fire-polished Pasteur pipettes, the cell suspension was washed by centrifugation. Cells were suspended in serum-free Neurobasal medium with B27 supplement (GIBCO) before plating onto poly-L-lysine (Sigma; 0.2 mg/ml, 20 h, 4° C.) and laminin (Sigma; 2 μg/ml, 1 h, 37° C.)-coated 96-well plates (Falcon, Primaria) at a density of 5×10^4 cells/well. Cortical neurones were maintained at 37° C. in humidified 10% CO2 /90% air. […] The medium was changed first after 4 days in vitro and then every 4 days by replacing 2/3 of the medium with astrocyte-conditioned medium. Cortical neurones between day 12 and 14 in culture were used for the experiments.
New-born rat astrocytes were isolated non-enzymatically according to the method of [24]. Briefly, both hemispheres were dissected from 2-day-old rats, passed through an 80 μm gauze, and triturated with Pasteur pipettes. Cell suspension was made in Dulbecco's modified essential medium (DMEM, Gibco) supplemented with 10% fetal calf serum (FCS, Hyclone), 2 mM glutamine (Gibco) and 50 μg/ml gentamycin and transferred into untreated, plastic culture flasks (Corning; […]). Two days after plating the flasks were shaken for 10 minutes on a rotary platform (150 U/min) to remove microglial cells. The cultures were grown to confluency within 14 days, and the culture medium was changed twice weekly. Thereafter, the glial monolayers were extensively washed with serum-free Neurobasal medium (Gibco) to remove the serum. Flasks were then shaken several times to remove oligodendrocytes and neurones. To obtain conditioned medium from primary astrocytes, the cultures were incubated with fresh Neurobasal medium supplemented with B27 andglutamine. Every 2-3 days the conditioned medium was collected and replaced by fresh medium up to 4 times.
Exposure to EAA was performed in serum-free Neurobasal medium containing 100 μM glutamate and the drug to be tested. After 20 h of incubation, the cytotoxic effect was morphologically examined under a phase contrast microscope and biochemically quantified by measuring cell viability with the MTT test (Promega). This calorimetric assay measures the reduction of a tetrazolium component (MTT) into an insoluble formazan product by the mitochondria of living cells. After incubation of the cortical neurones with the dye solution for approximately 1-4 hours, a solubilization solution was added to lyse the cells and solubilize the colored product (incubation overnight at 37° C., 10% CO2, 90% RH). These samples were then read using an Elisa plate reader (Thermomax, MWG Biotech) at a wavelength of 570 nm. The amount of color produced was directly proportional to the number of viable cells.
(§1) IC50 s in patch clamp, excitotoxicity, and binding studies were calculated according to the four parameter logistic equation using the Grafit computer program (Erithacus Software, England). Ki value for binding studies were then determined according to Cheng and Prusoff. Binding values presented are means±SEM of 3-5 determinations (each performed in duplicate). […] Pearson product moment correlation analysis (Sigma Stat, Jandel Scientific) was used to compare in vitro potencies and in vivo anticonvulsant activity.

[2] = Maximal electroshock (MES)-induced convulsions in mice; assay type: in vivo; conditions: for ED50: Mus musculus, ip, 0.5 h, read-out: MES ED50
Description: (§2) NMR female mice (18-28 g) housed 5 per cage were used for the maximal electroshock (MES) and motor impairment tests. […] All compounds were dissolved in 0.9% saline.
(§3) The MES test was performed together with tests for myorelaxant action (traction reflex) and motor coordination (rotarod). For the traction reflex test mice were placed with their forepaws on a horizontal rod and were required to place all 4 paws on the wire within 10 seconds. To test ataxia (motor coordination) mice were placed on rotarod (5 rpm) and were required to remain on the rod for 1 minute. […] These tests were followed by MES (100 Hz, 0.5 second shock duration, 50 mA shock intensity, 0.9 ms impulse duration, Ugo Basile) applied through corneal electrodes. The presence of tonic convulsions was scored (tonic extension of hind paws with minimum angle to the body of 90°). The aim was to obtain ED50 s for all parameters scored (anticonvulsive activity and motor side effects) with use of the Litchfield Wilcoxon test for quantal dose responses. Division of the ED50 for side effects (ataxia or myorelaxation) by the ED50 for antagonism of electroshock convulsions was used as a therapeutic index (TI). […]

[3] = system: NMDA receptor; experiment: Patch clamp: NMDA-induced inward currents in cultured hippocampal neurones; assay type: cell-based, rat
Description: Hippocampi were obtained from rat embryos (E20 to E21) and were then transferred to calcium and magnesium free Hank's buffered salt solution (Gibco) on ice. Cells were mechanically dissociated in 0.05% DNAase/0.3% ovomucoid (Sigma) following an 8 minute pre-incubation with 0.66% trypsin/0.1% DNAase (Sigma). The dissociated cells were then centrifuged at 18 ×g for 10 minutes, re-suspended in minimum essential medium (Gibco) and plated at a density of 150,000 cells cm^-2 onto poly-L-lysine (Sigma)-precoated plastic petri dishes (Falcon). The cells were nourished with NaHCO3 /HEPES-buffered minimum essential medium supplemented with 5% fetal calf serum and 5% horse serum (Gibco) and incubated at 37° C. with 5% CO2 at 95% humidity. […] Thereafter the medium was exchanged partially twice weekly.
Patch clamp recordings were made from these neurones with polished glass electrodes (4-6 m.OMEGA.) in the whole cell mode at room temperature (20-22° C.) with the aid of an EPC-7 amplifier (List). Test substances were applied by switching channels of a custom-made fast superfusion system with a common outflow (10-20 ms exchange times). The contents of the intracellular solution were as follows (mM): CsCl (120), TEACl (20), EGTA (10), MgCl2 (1), CaCl2 -(0.2), glucose (10), ATP(2), cAMP (0.25); pH was adjusted to 7.3 with CsOH or HC1. The extracellular solutions had the following basic composition (mM): NaCl (140), KCl (3), CaCl2 (0.2), glucose (10), HEPES (10), sucrose (4.5), tetrodotoxin (TTX 3*10^-4). Glycine (1 μM) was present in all solutions: a concentration sufficient to cause around 80-85% activation of glycineB receptors. Only results from stable cells were accepted for inclusion in the final analysis, i.e., following recovery of responses to NMDA by at least 75% of their depression by the antagonists tested.
as §1

[4] = Description: All animals were kept with water and food ad libitum under a 12 hour light-dark cycle (light on at 6 a.m.) and at a controlled temperature (20±0.5° C.). All e experiments were performed between 10 a.m. and 5 p.m. Tested agents were injected 30 min. i.p. before the induction of convulsions if not stated otherwise (see below). All compounds were dissolved in 0.9% saline.
[5] = Traction reflex test (myorelaxant action) in mice, therapeutic index versus MES; assay type: in vivo; conditions: ED50 for traction reflex impairment divided by ED50 for MES; 30 min
Description: as §2, §3

[6] = Table 7, 100 μM glutamate, 20 h, read-out: Glut. Tox. IC50
[7] = Table 9, 100 μM glutamate, read-out: Glut Tox IC50
[8] = Table 7, mice, i.p., 30 min before
[9] = Table 8, mice, i.p., 95% confidence limits in parentheses
[10] = Table 7; NMDA 200 μM with glycine 1 μM at -70 mV; read-out: Patch Clamp IC50
[11] = Table 9; NMDA-induced currents; read-out: Patch Clamp IC50

Compound | IC50 [1, 6] | IC50 [1, 7] | ED50 [2, 8] | ED50 [2, 9] | IC50 [3, 10] | IC50 [3, 11] | Min Lethality ([4]; i.p., minimal lethal dose) | TI Tract [5] | Min Lethality ([4]; mouse, in vivo, ip) | IC50 ([1]; 20 h, read-out: Glut. Tox. IC50) | IC50 ([1]; read-out: Glut Tox IC50) | ED50 [2] | MES ED50 ([2]; Table 8, mice, i.p., 95% confidence limits in parentheses, 30 min) | IC50 ([3]; read-out: Patch Clamp IC50; Table 7; NMDA 200 μM with glycine 1 μM at -70 mV) | IC50 ([3]; read-out: Patch Clamp IC50; Table 9; NMDA-induced currents)
CC[C@H]1CCC[C@@](C)(N)C1 (relative stereo) [Mrz 2/630] | > 100 µM | > 100 µM | > 30 mg/kg | > 30 mg/kg | > 100 µM | 100 µM | > 30 mg/kg | – | – | – | – | – | – | – | –
C[C@H]1CCC[C@@](C)(N)C1 (relative stereo) [Mrz 2/631] | > 100 µM | > 100 µM | 30 mg/kg | 30 mg/kg | > 100 µM | > 100 µM | > 30 mg/kg | – | – | – | – | – | – | – | –
CC[C@H]1CC(C)(C)C[C@@](C)(N)C1 (relative stereo) [Mrz 2/632] | 10.9 µM | 11.2 µM | 11 mg/kg | 11 mg/kg | 6.4 µM | 6.4 µM | – | 2.7 | > 30 mg/kg | – | – | – | – | – | –
CC[C@@H]1CC(C)(C)C[C@@](C)(N)C1 (relative stereo) [Mrz 2/633] | 5.4 µM | 6.1 µM | 8.78 mg/kg | 8.78 mg/kg | 13.9 µM | 13.9 µM | – | 2.4 | 108 mg/kg | – | – | – | – | – | –
CCC[C@@H]1CC(C)(C)C[C@](C)(N)C1 (relative stereo) [Mrz 2/634] | 19 µM | 19 µM | > 30 mg/kg | > 30 mg/kg | 10.8 µM | 10.8 µM | > 30 mg/kg | – | – | – | – | – | – | – | –
CCCC1(C)CCCC(C)(N)C1 (stereo not shown) [Mrz 2/617] | > 70 µM | > 70 µM | 54.9 mg/kg | 54.9 mg/kg | 57.4 µM | 63.9 µM | – | – | > 50 mg/kg | – | – | – | – | – | –
CC1(N)CCCCC1 [Mrz 2/641] | > 100 µM | > 100 µM | > 50 mg/kg | > 50 mg/kg | > 100 µM | > 100 µM | > 50 mg/kg | – | – | – | – | – | – | – | –
CN(C)C1(C)CC(C)(C)CC(C)(C)C1 [Mrz 2/642] | – | – | – | – | – | – | – | 4.1 | – | 29.3 µM | 29.3 µM | 8.04 mg/kg | 8.04 (5.1-12.7) mg/kg | 42.5 µM | 42.5 µM
CC(C)(N)CC1CC(C)(C)CC(C)(C)C1 [Mrz 2/645] | > 100 µM | > 100 µM | 65.6 mg/kg | 65.6 mg/kg | 20.4 µM | 20.4 µM | – | – | – | – | – | – | – | – | –
